Consider 5 compounds from patent US9844554B2 (Neurogastrx, Inc., priority 2014, dated 2017).

In one data set the target is hERG channel (Homo sapiens, UniProt Q12809). Description: hERG voltage clamp assay in hERG-expressing cultured cells. In kind it is cell-based. Conditions: approximate, from voltage clamp data, read-out: concentration necessary to inhibit 50% of the tail currents mediated by hERG channels. A general note: hERG is a cardiac potassium channel; its block is linked to QT prolongation.
hERG channel, sequence (Q12809 whole entry): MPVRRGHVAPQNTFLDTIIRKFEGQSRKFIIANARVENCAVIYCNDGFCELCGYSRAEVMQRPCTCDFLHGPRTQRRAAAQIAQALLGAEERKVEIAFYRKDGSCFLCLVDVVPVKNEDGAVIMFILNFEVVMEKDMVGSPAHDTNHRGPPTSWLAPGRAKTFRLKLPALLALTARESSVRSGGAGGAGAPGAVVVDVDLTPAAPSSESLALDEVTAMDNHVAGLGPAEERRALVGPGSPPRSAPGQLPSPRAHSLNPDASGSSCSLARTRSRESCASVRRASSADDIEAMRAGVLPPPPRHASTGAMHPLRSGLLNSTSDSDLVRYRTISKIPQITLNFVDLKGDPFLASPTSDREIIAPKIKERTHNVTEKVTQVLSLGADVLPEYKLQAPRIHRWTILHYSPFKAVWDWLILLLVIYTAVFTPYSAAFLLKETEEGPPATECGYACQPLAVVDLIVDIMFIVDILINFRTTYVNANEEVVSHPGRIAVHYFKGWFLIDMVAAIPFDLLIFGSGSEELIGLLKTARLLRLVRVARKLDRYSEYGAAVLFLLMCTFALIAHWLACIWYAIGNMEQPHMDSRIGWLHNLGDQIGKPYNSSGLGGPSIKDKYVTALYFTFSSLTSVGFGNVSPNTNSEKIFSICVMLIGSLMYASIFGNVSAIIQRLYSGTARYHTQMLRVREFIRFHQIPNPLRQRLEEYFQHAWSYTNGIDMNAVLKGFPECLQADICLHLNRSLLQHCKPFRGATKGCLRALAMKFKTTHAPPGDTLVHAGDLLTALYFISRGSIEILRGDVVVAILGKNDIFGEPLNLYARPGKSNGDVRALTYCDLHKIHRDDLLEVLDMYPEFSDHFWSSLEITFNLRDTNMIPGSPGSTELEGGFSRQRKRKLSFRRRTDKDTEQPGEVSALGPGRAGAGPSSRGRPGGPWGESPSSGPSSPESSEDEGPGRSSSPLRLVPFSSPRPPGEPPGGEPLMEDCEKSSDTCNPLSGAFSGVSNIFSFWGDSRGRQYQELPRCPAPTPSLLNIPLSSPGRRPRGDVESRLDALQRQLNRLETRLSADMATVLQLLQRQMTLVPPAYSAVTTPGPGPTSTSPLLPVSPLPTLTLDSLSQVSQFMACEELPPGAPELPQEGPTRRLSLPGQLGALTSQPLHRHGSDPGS

Another data set concerns the target 5HT2. Description: Radioligand binding affinity, 5HT2.
In data set [1] the test system is cardiac action potentials in dogs. Put plainly: Canine cardiac action potentials by electrocardiography and telemetry. In kind it is in vivo, dog. The following applies: for QTc intervals: oral gavage, 1-6 hours post-dose, vs vehicle. An excerpt: Surgical Implantation of the Telemetry Device and ECG Leads. Anesthesia is introduced to dogs. Balanced gaseous anesthesia is used throughout the surgical procedure. Once anesthetized, animals are shaved and surgically scrubbed, encompassing surgical sites of the right inguinal area, chest and right lateral abdomen. Throughout the surgical procedure, animals are monitored for continuous assessment of vital signs. An incision is made along the right medial thigh and the femoral artery exposed by blunt dissection. Another incision is made in the lateral lumbar area cranial to the iliac crest for a tunneling needle to be passed subcutaneously from the incision on the medial thigh to the lumbar incision. A blood pressure catheter is passed through the needle from the lumbar incision and the needle removed. The femoral artery is ligated distally and incised to insert a catheter that is advanced until the tip resided in the femoral artery/abdominal aorta. The catheter is then secured by ligation. The incision in the lumbar area is enlarged and a subcutaneous pocket created in the left dorsal lumbar area to hold the transmitter body. The transmitter (e.g., Data Sciences International, St Paul, Minn., USA) is inserted into the subcutaneous pocket and secured body. Electrocardiography (ECG) leads are positioned. The incision is closed. Postoperative recovery lasts, e.g., about 2 weeks during which supplemental analgesics/antibiotics are administered as needed. Once the postoperative recovery period is complete, the animal is examined for study acceptability by the staff veterinarian and the implanted transmitter signal verified.
Study Design. […] ECGs, heart rate and arterial blood pressure data are recorded 1 hour prior to and then continuously for at least 6 hours following compound and/or vehicle administration. A blood sample for determination of compound plasma concentrations is collected from all subjects at approximately 6 h post-dose.
ECG Analysis. An ECG waveform morphology assessment for the entire monitoring period is completed for each dog by a safety pharmacologist or veterinarian cardiologist. Standard ECG intervals (PR, RR, QRS and QT) are automatically measured by the data acquisition system and reported as, e.g., 10 min averages. The signals are collected with Data Sciences International Systems hardware. PR and QT manual overreads are conducted as appropriate. The manual measurements are completed from 50 mm s^−1 tracings at 30 min intervals. A mean of the three waveforms per time point are reported. QT intervals are corrected for heart rate (QTc) values by, e.g., using the formula by Funck-Bretano and Jaillon (1993).
Statistical Analysis. […] Dose-level averages (and accompanying standard deviation (s.d.) of these baseline-adjusted 10 min averages are calculated across study animals. ANOVA (e.g., repeated measures ANOVA) are applied to these baseline-adjusted averages. Pairwise t-tests are applied within the ANOVA to identify the presence of significant differences of the dose levels relative to vehicle. These t-tests are performed at a 0.05/2=0.025 significance level, so that the overall error rate across the comparisons in a given interval are not higher than 0.05. ECG interval data (reported at 30 min intervals) are analyzed using, e.g., repeated-measures ANOVA techniques similar to the systemic blood pressure and heart rate data described above.

The next data set has as its target α1. Description: Radioligand binding affinity, α1.
Data set [2] concerns gastric emptying in Sprague-Dawley rats. Put plainly: Solid gastric emptying in rodents. The data set is classed as in vivo, rat. The protocol: The animals received a standard laboratory rat chow and tap water ad libitum. The rats were around 400 g at 14 weeks age when used in gastric emptying study. Drugs: S-Carbidopa was purchased from Sigma (#: C1335). Stock solution of S-Carbidopa was prepared at 5 mg/ml using DMSO as solvent. 80 μl stock solution was further diluted into 1 ml distilled water to make 0.4 mg/ml. The effect of S-Carbidopa (1 mg/kg) on solid gastric emptying was studied. Procedures: Male SD rats were involved in this study. Rats were fasted in cages with metal wired mesh for 24 hours with free access to water; S-carbidopa (1 mg/kg) was administered to the rats by oral gavage. Control rats were not administered S-carbidopa. 15 minutes following administration, rats were given access to 2 g of rat chow pellets for ten minutes. All rats completely ingested the chow within the 10 minute time frame. Rats were sacrificed by sodium pentobarbital (100 mg/kg) overdose 90 min after feeding. The stomach was surgically isolated and removed. Gastric contents were recovered from the stomach, air dried for 48 hours and then weighed. Solid gastric emptying was calculated according to the following formula: Gastric emptying (%)=[1−(dried gastric content in g)/2 g]×100. All values are expressed as mean±SEM.

Data set [3] has as its system gastric motility in canines. Description: Antral manometry (gastric motility) in canines. In kind it is in vivo, canine (hound dogs). The protocol: Two healthy female hound dogs (24-28 kg) were involved in this study. Animals were fed an ad libitum chow diet (LabDiet®). After an overnight fast, the dogs were anesthetized with Pentothal (sodium thiopental, 11 mg/kg IV; Abbott Laboratories, North Chicago, Ill.) and maintained on 2-4% isoflurane (Abbott Laboratories) in oxygen (1 L/min) carrier gases delivered from a ventilator after endotracheal intubation. A cannula was placed in the jejunum 20 cm distal to the pylorus for the assessment of antral motility. Dogs were allowed to recover in their individual cages for 2 weeks. All experiments were performed after the dogs were completely recovered from the surgical procedure. The study was performed according to the National Institutes of Health Guidelines on the use of laboratory animals and approved by the Animal Care and Use Committee of the University of Texas Medical Branch at Galveston, Tex. To investigate the effect of the drugs on antral manometry, the study of each drug dose was done on three randomized sessions on separate days following the consumption of one can of solid dog food: 1) a Control session: In which animals received the vehicle only; 2) Dose I session: in which the lower dose of the drug was used; and 3) Dose II session: in which the higher dose of the drug was used (please refer to table for drug doses). Drug administration was performed according to Table 4, below. Antral manometry was performed as follows. Following an overnight fast, an intraluminal water-perfused manometry catheter was inserted into the antrum through the jejunal cannula. Antral manometry recording was initiated after the consumption of one can of solid food and continued for 3 hours. The catheter contained 3 manometric sensors at a 1 cm interval. Dogs were given 10 minutes of accommodation, prior to the start of the recording. For data analysis, motility index (MI), defined as the integrated area (area under curve—AUC) between baseline and contractions per hour, was calculated. For statistical analysis, the Student's t-test was used for assessment of individual differences between groups (high dose, low dose of each drug) compared to control—Microsoft®Excel 2002). All values are expressed as mean±SEM. Significance was considered when p value was ≦0.05.

The next data set concerns the target D3 (Homo sapiens, UniProt P35462). Description: Radioligand binding affinity, D3.

Some results are limits rather than exact numbers.

D3, sequence (P35462 whole entry): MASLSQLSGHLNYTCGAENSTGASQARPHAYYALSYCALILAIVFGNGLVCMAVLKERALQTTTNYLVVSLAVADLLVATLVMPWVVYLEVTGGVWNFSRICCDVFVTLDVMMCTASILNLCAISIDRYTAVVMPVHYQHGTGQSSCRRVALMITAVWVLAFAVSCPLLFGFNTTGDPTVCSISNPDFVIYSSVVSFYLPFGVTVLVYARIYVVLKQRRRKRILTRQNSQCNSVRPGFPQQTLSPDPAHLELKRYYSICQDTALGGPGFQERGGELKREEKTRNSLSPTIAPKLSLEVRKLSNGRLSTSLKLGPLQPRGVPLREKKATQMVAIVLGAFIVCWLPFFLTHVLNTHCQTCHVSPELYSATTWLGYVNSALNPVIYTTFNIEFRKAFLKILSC

As to `CS(=O)(=O)c1ccc2c(c1)N(CCCN1CCC(C(N)=O)CC1)c1ccccc1S2` [Metopimazine, 1-[3-[2-(methylsulfonyl)-10H-phenothiazin-10-yl]propyl]-piperidine-4-carboxamide], the IC50 at hERG channel is around 3000 nM. The figures for the Ki at 5HT2 and at α1 were 15 nM and 1.9 nM, respectively. Moreover, in data set [1], the QTc intervals result was “no significant increases in QTc intervals”. In addition, the “overall increase in gastric emptying as compared to vehicle control” value in data set [2] (rats, pooling the 3 mg/kg and 10 mg/kg doses) is recorded as “about 20%”. The motor dysfunction result in data set [3] was “no motor dysfunction was observed”.
With `CS(=O)(=O)c1ccc2c(c1)N(CCCN1CCC(C(=O)O)CC1)c1ccccc1S2` [Metopimazine-Acid, metopimazine acid], on hERG channel, the IC50 was above 10000 nM. In addition, the Ki on 5HT2 was 370 nM; at D3, above 100 nM; at α1 it was 210 nM. The QTc intervals result in data set [1] is “no significant increases in QTc intervals”.
Turning to `C[C@@](Cc1ccc(O)c(O)c1)(NN)C(=O)O` [S-Carbidopa, (25)-3-(3,4-dihydroxyphenyl)-2-hydrazino-2-methylpropanoic acid], the QTc intervals result in data set [1] was “no significant increases in QTc intervals”. In addition, the motor dysfunction entry in data set [2] (rats administered carbidopa) and in data set [3] was “no motor dysfunction was observed” in each case. The “solid gastric emptying compared to control rats” value in data set [2] (rats, initial results) was “improves solid gastric emptying”. The “motility index (MI), antral manometry” value in data set [3] (1 mg/kg IV 15 min prior to meal, all three channels, p=0.05) was “robustly increased MI”.
For `CN(CCOc1ccc(NS(C)(=O)=O)cc1)CCc1ccc(NS(C)(=O)=O)cc1` [dofetilide], the “incidence of ECG abnormalities” value in data set [1] (0.3 mg/kg oral gavage) was “increases the incidence of premature ventricular contractions, T-wave abnormalities, and right bundle branch block”. For the same compound, the QTc intervals entry in data set [1] was “QTc intervals are increased”.
On to `Cl.NCCc1ccc(O)c(O)c1` [dopamine hydrochloride, Dopamine hydrochloride], for which the “motility index (MI), antral manometry” value in data set [3] (50 mg/canine IV immediately before meal, all channels, p=0.06) is reported as “decreased MI”.

The term Ki denotes a measure of affinity in units of concentration, obtained from inhibition or displacement. Read a high Ki as weaker binding.
